From ChEMBL document CHEMBL1201862, “PubChem BioAssay data set” (2004) come the findings set out here.

Molecules are shown by their SMILES.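 1) Cells in 96-well plates. 2) Compound, 48 h, 5 concentrations. 3) Linear interpolation between surrounding doses. 4) Unreached endpoint = highest concentration. GI50 = concentration required for 50% inhibition of growth.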 The source made the active and inactive calls. No stated cut-off is given here; in the data, active = GI50 up to about 1.1 µM and inactive = higher.

Test systems include ACHN; DU-145; EKVX; IGROV-1; M14; MDA-MB-231; MDA-MB-435; Malme-3M; NCI-H226; NCI/ADR-RES; OVCAR-5; RPMI-8226; RXF 393; SF-268; SK-MEL-28; SK-OV-3; SNB-19; U-251; UO-31.
Holding throughout (assay): NCI tumour cell line growth inhibition, 48 h

As to `Cc1ccc([N+](=O)[O-])cc1S(=O)(=O)Nc1ccc(C2=NN(C(=O)c3ccccc3)C(c3ccccc3O)C2)cc1` (stereo unspecified), the GI50 in the assay with ACHN is 15.7 µM (inactive); with DU-145, 20.2 µM (inactive); in the assay on EKVX, 12.6 µM (inactive); in the assay with IGROV-1, 10.2 µM (inactive); in the assay on M14, 16.3 µM (inactive); with MDA-MB-231, 15.7 µM (inactive). Moreover, the GI50 in the assay with MDA-MB-435 is 31.2 µM (inactive); in the assay with Malme-3M, 12.6 µM (inactive); in the assay on NCI-H226, 14.9 µM (inactive); in the assay on NCI/ADR-RES, 27 µM (inactive); in the assay with OVCAR-5, 19.7 µM (inactive); with RPMI-8226, 11.5 µM (inactive). Moreover, the GI50 in the assay with RXF 393 is 12.3 µM (inactive); in the assay on SF-268, 12.8 µM (inactive); with SK-MEL-28 it was 28.2 µM (inactive); in the assay with SK-OV-3, 19.1 µM (inactive); in the assay with SNB-19 it was 28.2 µM (inactive); in the assay on U-251 it was 16.5 µM (inactive). Moreover, in the assay on UO-31, the GI50 is 16.6 µM (inactive).

In the case of `O=C1CCCc2c1c1c(n2Cc2ccccc2)-c2ccccc2C1=O`, the GI50 was 16 µM (inactive) with ACHN; 28.9 µM (inactive) in the assay with DU-145; 27.7 µM (inactive) in the assay with EKVX; 18.9 µM (inactive) in the assay with IGROV-1; 21.3 µM (inactive) with M14; 15.4 µM (inactive) in the assay on MDA-MB-231. Further, the GI50 is 18.4 µM (inactive) in the assay with MDA-MB-435; 15.3 µM (inactive) in the assay with Malme-3M; 21.6 µM (inactive) in the assay with NCI-H226; 21.1 µM (inactive) in the assay with NCI/ADR-RES; 32.1 µM (inactive) in the assay with OVCAR-5; 3.14 µM (inactive) in the assay with RPMI-8226. The GI50 in the assay on RXF 393 is 29.9 µM (inactive); with SF-268 it was 22.2 µM (inactive); in the assay on SK-MEL-28, 33.3 µM (inactive); with SK-OV-3, 18.8 µM (inactive); in the assay with SNB-19 it was 15.4 µM (inactive); in the assay on U-251 it was 20.7 µM (inactive). In the assay with UO-31, the GI50 is 23.7 µM (inactive).

Take `CCC12C=CCN3CCC4(c5cc(C(c6ccc(OC)cc6)C6Cc7ccccc7N6)c(OC)cc5N(C)C4C(O)(C(=O)OC)C1O)C32` (stereo unspecified): the GI50 is 19.2 µM (inactive) in the assay with ACHN; 29 µM (inactive) in the assay with DU-145; 36.1 µM (inactive) in the assay on EKVX; 16.9 µM (inactive) in the assay with IGROV-1; 24.2 µM (inactive) with M14; 16.1 µM (inactive) with MDA-MB-231. The GI50 with MDA-MB-435 is 12.7 µM (inactive); in the assay on Malme-3M, 36.6 µM (inactive); in the assay with NCI-H226, 32.7 µM (inactive); in the assay with NCI/ADR-RES it was 26.1 µM (inactive); in the assay with OVCAR-5, 36.7 µM (inactive); in the assay on RPMI-8226 it was 1.83 µM (inactive). The GI50 with RXF 393 is 14.3 µM (inactive); with SF-268, 44.6 µM (inactive); in the assay on SK-MEL-28, 30.2 µM (inactive); in the assay with SK-OV-3, 29.4 µM (inactive); with SNB-19 it was 17.9 µM (inactive); in the assay with U-251, 11 µM (inactive). The GI50 in the assay with UO-31 was 10.2 µM (inactive).

On to `CC1=NN(c2nc(N)nc(/C(C#N)=C/c3ccc([N+](=O)[O-])o3)n2)C(C)(C)C1`, for which the GI50 in the assay with ACHN is 1.81 µM (inactive); in the assay with DU-145, 6.35 µM (inactive); in the assay on EKVX it was 3.37 µM (inactive); in the assay on IGROV-1 it was 2.05 µM (inactive); in the assay on M14 it was 1.57 µM (inactive); with MDA-MB-231, 1.81 µM (inactive). The GI50 in the assay on MDA-MB-435 is 2.39 µM (inactive); in the assay on Malme-3M it was 2.01 µM (inactive); in the assay with NCI-H226 it was 2.24 µM (inactive); in the assay with NCI/ADR-RES, 10.8 µM (inactive); in the assay with OVCAR-5, 1.58 µM (inactive); in the assay with RPMI-8226, 3.01 µM (inactive). For the same molecule, the GI50 in the assay with RXF 393 was 1.75 µM (inactive); in the assay on SF-268, 3.85 µM (inactive); with SK-MEL-28, 5.06 µM (inactive); with SK-OV-3 it was 21.1 µM (inactive); in the assay on SNB-19, 15.7 µM (inactive); in the assay on U-251 it was 5.21 µM (inactive). Further, the GI50 in the assay with UO-31 is 2.92 µM (inactive).

As to `CC1CCC/C1=C(/I)C(=O)c1ccccc1` (stereo unspecified), the GI50 in the assay on ACHN was > 100 µM (inactive); in the assay with DU-145, > 100 µM (inactive); with EKVX it was > 100 µM (inactive); in the assay with IGROV-1, > 100 µM (inactive); in the assay on M14, 59.3 µM (inactive); in the assay on MDA-MB-231, 40.2 µM (inactive). Besides, the GI50 in the assay on MDA-MB-435 was 28.9 µM (inactive); in the assay with Malme-3M, 64.4 µM (inactive); in the assay on NCI-H226, 60.7 µM (inactive); in the assay on NCI/ADR-RES, 76.7 µM (inactive); with OVCAR-5 it was 18.5 µM (inactive); in the assay on RPMI-8226 it was 55.3 µM (inactive). The GI50 in the assay with RXF 393, with SF-268, with SK-MEL-28, in the assay on SK-OV-3, in the assay on SNB-19 and in the assay on U-251 was > 100 µM (inactive) in each case. In addition, the GI50 in the assay on UO-31 was > 100 µM (inactive).

Consider `CN1C(=O)C(O)CC1c1cccc(C(F)(F)F)c1` (stereo unspecified), for which the GI50 in the assay on ACHN, with DU-145, with EKVX, in the assay with IGROV-1, in the assay with M14 and in the assay on MDA-MB-231 was > 100 µM (inactive) in each case. Also, the GI50 with MDA-MB-435, in the assay on Malme-3M, with NCI-H226, in the assay on NCI/ADR-RES, in the assay with OVCAR-5 and in the assay with RPMI-8226 was > 100 µM (inactive) throughout. Also, the GI50 with RXF 393, in the assay with SF-268, in the assay on SK-MEL-28, with SK-OV-3, in the assay on SNB-19 and in the assay with U-251 was > 100 µM (inactive) each time. Also, the GI50 in the assay with UO-31 was > 100 µM (inactive).

For the molecule `Cc1nnc2sc(-c3ccc([N+](=O)[O-])o3)nn12`, the GI50 is 11.2 µM (inactive) in the assay with ACHN; 15 µM (inactive) with DU-145; 20.5 µM (inactive) in the assay on EKVX; 15.7 µM (inactive) with IGROV-1; 9.91 µM (inactive) with M14; 14 µM (inactive) in the assay on MDA-MB-231. In addition, the GI50 was 4.37 µM (inactive) in the assay with MDA-MB-435; 4.08 µM (inactive) in the assay on Malme-3M; 15 µM (inactive) in the assay with NCI-H226; 16.4 µM (inactive) with NCI/ADR-RES; 18.5 µM (inactive) in the assay with OVCAR-5; 10.5 µM (inactive) in the assay on RPMI-8226. For the same molecule, the GI50 in the assay with RXF 393 was 11.6 µM (inactive); with SF-268 it was 13.2 µM (inactive); in the assay on SK-OV-3, 18.7 µM (inactive); in the assay on SNB-19, 18.8 µM (inactive); with U-251 it was 14.7 µM (inactive); with UO-31, 15.2 µM (inactive).

As to `CCN(CC)C(=S)SS(=O)(=O)c1ccc(F)cc1`, the GI50 is 43.1 µM (inactive) in the assay on ACHN; 37.9 µM (inactive) in the assay with DU-145; > 100 µM (inactive) in the assay with EKVX; 29.1 µM (inactive) in the assay with M14; 32.4 µM (inactive) in the assay on MDA-MB-231; 38.9 µM (inactive) with MDA-MB-435. The GI50 with Malme-3M was 19.9 µM (inactive); with NCI-H226, > 100 µM (inactive); in the assay on NCI/ADR-RES, 50.7 µM (inactive); with OVCAR-5, > 100 µM (inactive); in the assay with RPMI-8226, 17.7 µM (inactive); in the assay with RXF 393, 18.8 µM (inactive). For the same molecule, the GI50 was > 100 µM (inactive) in the assay with SF-268; 14 µM (inactive) in the assay on SK-MEL-28; > 100 µM (inactive) in the assay on SK-OV-3; > 100 µM (inactive) with SNB-19; 18.8 µM (inactive) in the assay on U-251; 27.7 µM (inactive) in the assay with UO-31.

As for `C[C@]12CCC(=O)C=C1CC[C@@H]1[C@@H]2CC[C@]2(C)C(=O)/C(=C/c3ccc([N+](=O)[O-])cc3)C[C@@H]12`, the GI50 in the assay on ACHN was 2.36 µM (inactive); in the assay with DU-145, 0.824 µM (active); with EKVX, 17.1 µM (inactive); in the assay on IGROV-1 it was > 100 µM (inactive); in the assay with M14, 29.4 µM (inactive); in the assay with MDA-MB-231, 75.2 µM (inactive). For the same molecule, the GI50 is 6.04 µM (inactive) with MDA-MB-435; 70.8 µM (inactive) in the assay with Malme-3M; > 100 µM (inactive) in the assay on NCI-H226; 5.85 µM (inactive) in the assay on NCI/ADR-RES; > 100 µM (inactive) with OVCAR-5; 5.52 µM (inactive) in the assay on RPMI-8226. The GI50 in the assay on RXF 393 was 13.5 µM (inactive); with SF-268, 83.6 µM (inactive); with SK-MEL-28, > 100 µM (inactive); with SK-OV-3, > 100 µM (inactive); with SNB-19 it was > 100 µM (inactive); in the assay with UO-31 it was 3.45 µM (inactive).

Turning to `COc1ccc2c(-c3ccc(O)cc3)c(Oc3ccccc3)c(=O)oc2c1`, the GI50 in the assay on ACHN is > 34.4 µM (inactive); in the assay with DU-145, 4.58 µM (inactive); in the assay with EKVX it was 4.89 µM (inactive); in the assay with IGROV-1, 3.78 µM (inactive); with M14, > 100 µM (inactive); in the assay with MDA-MB-231 it was 18.8 µM (inactive). For the same molecule, the GI50 in the assay with MDA-MB-435 was > 100 µM (inactive); with Malme-3M it was 9.44 µM (inactive); in the assay on NCI-H226, 29.9 µM (inactive); with NCI/ADR-RES, 14.2 µM (inactive); with OVCAR-5 it was > 24.4 µM (inactive); in the assay on RPMI-8226 it was 2.62 µM (inactive). Besides, the GI50 is 11.8 µM (inactive) in the assay with RXF 393; > 32.9 µM (inactive) in the assay on SF-268; 96.8 µM (inactive) with SK-MEL-28; 6.49 µM (inactive) in the assay with SK-OV-3; > 22.9 µM (inactive) in the assay with U-251; 3.13 µM (inactive) with UO-31.
